According to ChEMBL document CHEMBL4879554, “Data for DCP probe GNE-2256” (2021):
Active and inactive are the calls of the source. The rule behind the calls is not given here.

Assays:
[1] = target: Death-associated protein kinase 1 (Homo sapiens) (UniProt P53355); assay: DAPK1 Kinase panel; conditions: Compound concentration 1.0 uM
[2] = target: Muscarinic acetylcholine receptor M1 (Homo sapiens) (UniProt P11229); conditions: Compound concentration 10.0 uM
[3] = target: Protein kinase C zeta type (Homo sapiens) (UniProt Q05513); assay: PKC_zeta Kinase panel; conditions: Compound concentration 1.0 uM
[4] = target: 5-hydroxytryptamine receptor 1B (Homo sapiens) (UniProt P28222); conditions: Compound concentration 10.0 uM
[5] = target: Fibroblast growth factor receptor 4 (Homo sapiens) (UniProt P22455); assay: FGFR4 Kinase panel; conditions: Compound concentration 1.0 uM
[6] = target: MAP kinase-interacting serine/threonine-protein kinase 2 (Homo sapiens) (UniProt Q9HBH9); assay: MKNK2 Kinase panel; conditions: Compound concentration 1.0 uM
[7] = target: Calcium/calmodulin-dependent protein kinase type II subunit beta (Homo sapiens) (UniProt Q13554); assay: CaMKII_beta Kinase panel; conditions: Compound concentration 1.0 uM
[8] = target: Mitogen-activated protein kinase kinase kinase kinase 1 (Homo sapiens) (UniProt Q92918); assay: HPK1 Kinase panel; conditions: Compound concentration 1.0 uM
[9] = target: G protein-coupled receptor kinase 6 (Homo sapiens) (UniProt P43250); assay: GRK6 Kinase panel; conditions: Compound concentration 1.0 uM
Homo sapiens = species: Homo sapiens; assay: PKA Kinase panel; conditions: Compound concentration 1.0 uM
[10] = target: Phosphorylase b kinase gamma catalytic chain, skeletal muscle/heart isoform (Homo sapiens) (UniProt Q16816); assay: PhK_gamma1 Kinase panel; conditions: Compound concentration 1.0 uM
[11] = target: DNA-dependent protein kinase catalytic subunit (Homo sapiens) (UniProt P78527); assay: DNA_PK Kinase panel; conditions: Compound concentration 1.0 uM
Chain of DNA-dependent protein kinase catalytic subunit (Homo sapiens) (P78527 whole entry): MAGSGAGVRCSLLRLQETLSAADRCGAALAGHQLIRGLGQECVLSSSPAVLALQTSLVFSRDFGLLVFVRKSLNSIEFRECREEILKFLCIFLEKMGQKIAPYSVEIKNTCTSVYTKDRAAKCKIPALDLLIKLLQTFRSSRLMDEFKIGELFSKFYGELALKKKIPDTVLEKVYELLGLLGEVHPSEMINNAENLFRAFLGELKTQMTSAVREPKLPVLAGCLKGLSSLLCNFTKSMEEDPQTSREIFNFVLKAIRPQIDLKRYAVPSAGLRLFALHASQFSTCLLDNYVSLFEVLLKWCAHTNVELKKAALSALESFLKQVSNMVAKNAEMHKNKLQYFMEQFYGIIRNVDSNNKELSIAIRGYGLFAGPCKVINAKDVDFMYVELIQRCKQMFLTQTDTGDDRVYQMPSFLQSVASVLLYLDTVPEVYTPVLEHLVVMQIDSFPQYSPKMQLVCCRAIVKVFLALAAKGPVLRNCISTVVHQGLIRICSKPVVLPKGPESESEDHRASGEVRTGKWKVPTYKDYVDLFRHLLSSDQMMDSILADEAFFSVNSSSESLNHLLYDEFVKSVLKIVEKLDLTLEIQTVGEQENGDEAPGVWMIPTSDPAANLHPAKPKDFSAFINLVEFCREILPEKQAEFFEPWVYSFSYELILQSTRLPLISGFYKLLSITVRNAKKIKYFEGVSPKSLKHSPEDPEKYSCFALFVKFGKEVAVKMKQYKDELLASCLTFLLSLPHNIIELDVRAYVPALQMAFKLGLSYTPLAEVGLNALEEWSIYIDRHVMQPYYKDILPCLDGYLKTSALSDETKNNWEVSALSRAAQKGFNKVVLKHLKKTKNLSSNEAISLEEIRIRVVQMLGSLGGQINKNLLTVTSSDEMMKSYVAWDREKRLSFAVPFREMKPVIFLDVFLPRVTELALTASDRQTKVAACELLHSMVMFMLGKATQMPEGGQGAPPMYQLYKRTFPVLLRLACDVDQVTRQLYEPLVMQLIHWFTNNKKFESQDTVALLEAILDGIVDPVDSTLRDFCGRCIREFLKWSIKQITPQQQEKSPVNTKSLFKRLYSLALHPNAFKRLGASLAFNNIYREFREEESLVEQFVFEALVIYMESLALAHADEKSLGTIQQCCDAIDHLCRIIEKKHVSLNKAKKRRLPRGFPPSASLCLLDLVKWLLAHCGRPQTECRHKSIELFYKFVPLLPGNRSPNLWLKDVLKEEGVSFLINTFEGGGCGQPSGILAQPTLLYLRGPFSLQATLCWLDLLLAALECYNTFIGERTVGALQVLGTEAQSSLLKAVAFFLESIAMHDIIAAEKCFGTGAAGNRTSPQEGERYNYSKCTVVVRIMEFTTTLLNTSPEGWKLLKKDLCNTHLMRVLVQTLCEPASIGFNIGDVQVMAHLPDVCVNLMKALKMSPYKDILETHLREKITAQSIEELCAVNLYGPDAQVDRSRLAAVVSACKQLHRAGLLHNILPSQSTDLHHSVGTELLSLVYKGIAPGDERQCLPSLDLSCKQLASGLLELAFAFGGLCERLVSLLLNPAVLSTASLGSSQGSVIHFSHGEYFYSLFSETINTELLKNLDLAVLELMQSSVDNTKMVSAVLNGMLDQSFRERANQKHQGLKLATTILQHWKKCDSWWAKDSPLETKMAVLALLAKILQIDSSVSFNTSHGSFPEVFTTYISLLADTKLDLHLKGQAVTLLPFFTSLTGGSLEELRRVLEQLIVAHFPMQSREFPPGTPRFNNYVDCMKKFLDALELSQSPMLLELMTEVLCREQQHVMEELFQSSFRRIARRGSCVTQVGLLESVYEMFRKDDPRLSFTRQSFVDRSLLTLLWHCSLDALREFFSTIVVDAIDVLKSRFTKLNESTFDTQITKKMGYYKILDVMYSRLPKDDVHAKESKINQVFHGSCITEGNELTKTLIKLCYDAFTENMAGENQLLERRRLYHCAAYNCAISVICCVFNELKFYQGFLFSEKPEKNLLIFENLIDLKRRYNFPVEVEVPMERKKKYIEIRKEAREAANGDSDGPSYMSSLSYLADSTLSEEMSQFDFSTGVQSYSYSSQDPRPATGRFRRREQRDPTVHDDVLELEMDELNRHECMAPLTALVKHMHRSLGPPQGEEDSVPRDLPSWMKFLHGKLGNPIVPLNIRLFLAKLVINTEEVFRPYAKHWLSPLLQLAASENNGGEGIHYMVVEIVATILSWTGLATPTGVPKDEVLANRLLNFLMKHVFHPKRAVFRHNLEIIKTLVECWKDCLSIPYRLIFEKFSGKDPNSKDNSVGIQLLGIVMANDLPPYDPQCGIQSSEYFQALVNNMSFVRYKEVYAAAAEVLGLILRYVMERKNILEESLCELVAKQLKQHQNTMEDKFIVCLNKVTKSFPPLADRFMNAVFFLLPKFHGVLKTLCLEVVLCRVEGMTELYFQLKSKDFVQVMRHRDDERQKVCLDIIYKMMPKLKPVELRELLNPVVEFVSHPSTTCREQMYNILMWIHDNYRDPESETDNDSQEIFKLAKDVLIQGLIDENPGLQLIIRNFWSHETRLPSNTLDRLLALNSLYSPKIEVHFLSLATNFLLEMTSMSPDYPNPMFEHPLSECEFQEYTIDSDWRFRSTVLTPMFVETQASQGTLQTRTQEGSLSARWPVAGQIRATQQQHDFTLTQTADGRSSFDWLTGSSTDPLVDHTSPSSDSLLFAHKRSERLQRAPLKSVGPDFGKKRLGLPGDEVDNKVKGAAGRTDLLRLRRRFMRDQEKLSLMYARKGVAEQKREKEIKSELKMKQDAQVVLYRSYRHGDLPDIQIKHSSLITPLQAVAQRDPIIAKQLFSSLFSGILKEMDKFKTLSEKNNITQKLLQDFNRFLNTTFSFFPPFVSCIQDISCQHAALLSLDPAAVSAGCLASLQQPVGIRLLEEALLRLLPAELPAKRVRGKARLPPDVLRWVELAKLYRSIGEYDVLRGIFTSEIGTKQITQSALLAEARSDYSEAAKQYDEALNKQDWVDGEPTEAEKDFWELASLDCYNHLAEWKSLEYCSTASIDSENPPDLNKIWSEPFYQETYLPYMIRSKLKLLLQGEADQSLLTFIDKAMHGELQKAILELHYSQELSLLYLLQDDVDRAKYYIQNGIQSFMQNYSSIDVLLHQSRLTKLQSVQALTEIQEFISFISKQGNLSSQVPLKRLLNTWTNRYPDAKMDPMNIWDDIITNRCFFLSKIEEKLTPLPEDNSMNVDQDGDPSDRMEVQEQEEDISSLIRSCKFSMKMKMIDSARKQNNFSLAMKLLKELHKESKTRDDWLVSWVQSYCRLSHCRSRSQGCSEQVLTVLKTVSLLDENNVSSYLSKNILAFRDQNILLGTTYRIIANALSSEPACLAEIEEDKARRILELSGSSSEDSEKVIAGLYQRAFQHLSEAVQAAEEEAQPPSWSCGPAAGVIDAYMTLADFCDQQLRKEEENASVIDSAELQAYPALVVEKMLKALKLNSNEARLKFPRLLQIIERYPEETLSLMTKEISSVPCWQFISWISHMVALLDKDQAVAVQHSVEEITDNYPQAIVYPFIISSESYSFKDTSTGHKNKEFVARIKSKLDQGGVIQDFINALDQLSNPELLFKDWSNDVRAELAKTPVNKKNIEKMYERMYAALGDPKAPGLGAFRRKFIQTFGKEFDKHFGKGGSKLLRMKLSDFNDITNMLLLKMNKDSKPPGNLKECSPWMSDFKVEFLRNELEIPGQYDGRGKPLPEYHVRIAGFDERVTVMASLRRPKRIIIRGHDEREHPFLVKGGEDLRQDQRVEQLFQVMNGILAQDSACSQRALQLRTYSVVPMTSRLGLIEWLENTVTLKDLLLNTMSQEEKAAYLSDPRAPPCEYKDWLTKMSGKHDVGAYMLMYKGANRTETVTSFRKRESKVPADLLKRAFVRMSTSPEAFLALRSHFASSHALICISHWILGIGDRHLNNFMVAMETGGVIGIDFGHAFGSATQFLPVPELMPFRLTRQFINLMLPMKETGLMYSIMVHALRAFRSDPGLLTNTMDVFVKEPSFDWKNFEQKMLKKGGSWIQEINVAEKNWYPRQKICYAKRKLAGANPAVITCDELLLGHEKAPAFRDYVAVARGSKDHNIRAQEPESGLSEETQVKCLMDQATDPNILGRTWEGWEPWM

[12] = target: Serine/threonine-protein kinase 16 (Homo sapiens) (UniProt O75716); assay: STK16 Kinase panel; conditions: Compound concentration 1.0 uM
[13] = target: Vascular endothelial growth factor receptor 2 (Homo sapiens) (UniProt P35968); assay: KDR Kinase panel; conditions: Compound concentration 1.0 uM
[14] = target: RAC-alpha serine/threonine-protein kinase (Homo sapiens) (UniProt P31749); assay: AKT1 Kinase panel; conditions: Compound concentration 1.0 uM
Chain of RAC-alpha serine/threonine-protein kinase (Homo sapiens) (P31749 whole entry): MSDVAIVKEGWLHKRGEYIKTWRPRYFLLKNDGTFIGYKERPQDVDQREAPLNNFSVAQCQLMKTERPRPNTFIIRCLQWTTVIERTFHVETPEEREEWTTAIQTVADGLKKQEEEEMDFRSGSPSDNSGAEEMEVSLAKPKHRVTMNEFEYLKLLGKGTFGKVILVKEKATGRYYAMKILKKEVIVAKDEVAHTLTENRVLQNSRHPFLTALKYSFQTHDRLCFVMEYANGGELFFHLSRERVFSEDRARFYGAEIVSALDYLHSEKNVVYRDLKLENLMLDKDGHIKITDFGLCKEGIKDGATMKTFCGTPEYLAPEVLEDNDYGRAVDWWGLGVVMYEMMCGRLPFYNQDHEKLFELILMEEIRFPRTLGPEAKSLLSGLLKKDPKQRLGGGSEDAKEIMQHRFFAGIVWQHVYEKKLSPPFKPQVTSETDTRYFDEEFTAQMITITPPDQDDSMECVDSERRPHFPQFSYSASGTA

[15] = target: Dual specificity protein kinase CLK1 (Homo sapiens) (UniProt P49759); assay: CLK1 Kinase panel; conditions: Compound concentration 1.0 uM
[16] = target: 5-hydroxytryptamine receptor 1D (Homo sapiens) (UniProt P28221); conditions: Compound concentration 10.0 uM
[17] = target: Hepatocyte growth factor receptor (Homo sapiens) (UniProt P08581); assay: Met Kinase panel; conditions: Compound concentration 1.0 uM
[18] = target: Serine/threonine-protein kinase 26 (Homo sapiens) (UniProt Q9P289); assay: MST4 Kinase panel; conditions: Compound concentration 1.0 uM
[19] = target: Mitogen-activated protein kinase kinase kinase 9 (Homo sapiens) (UniProt P80192); assay: MLK1 Kinase panel; conditions: Compound concentration 1.0 uM
[20] = target: Serine/threonine-protein kinase MARK1 (Homo sapiens) (UniProt Q9P0L2); assay: MARK1 Kinase panel; conditions: Compound concentration 1.0 uM
[21] = target: Interleukin-1 receptor-associated kinase 4 (Homo sapiens, UniProt Q9NWZ3); assay: NanoBRET assay (IRAK4, SGC Frankfurt)
Chain of Interleukin-1 receptor-associated kinase 4 (Q9NWZ3 whole entry): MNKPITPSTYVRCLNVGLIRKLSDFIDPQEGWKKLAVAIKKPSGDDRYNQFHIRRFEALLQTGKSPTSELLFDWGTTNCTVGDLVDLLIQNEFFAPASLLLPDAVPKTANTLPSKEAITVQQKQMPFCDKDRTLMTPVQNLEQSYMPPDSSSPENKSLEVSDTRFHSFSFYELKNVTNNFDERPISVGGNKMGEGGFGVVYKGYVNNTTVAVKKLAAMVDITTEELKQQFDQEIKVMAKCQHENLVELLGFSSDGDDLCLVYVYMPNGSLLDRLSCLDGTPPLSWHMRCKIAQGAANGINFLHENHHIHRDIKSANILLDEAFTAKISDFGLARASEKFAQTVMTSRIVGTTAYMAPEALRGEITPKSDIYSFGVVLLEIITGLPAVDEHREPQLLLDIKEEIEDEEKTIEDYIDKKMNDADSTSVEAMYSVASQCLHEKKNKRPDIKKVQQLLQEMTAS

[22] = target: Insulin-like growth factor 1 receptor (Homo sapiens) (UniProt P08069); assay: IGF1R Kinase panel; conditions: Compound concentration 1.0 uM
[23] = target: Serine/threonine-protein kinase 25 (Homo sapiens) (UniProt O00506); assay: YSK1 Kinase panel; conditions: Compound concentration 1.0 uM
[24] = target: Tyrosine-protein kinase FRK (Homo sapiens) (UniProt P42685); assay: Frk Kinase panel; conditions: Compound concentration 1.0 uM
[25] = target: Serine/threonine-protein kinase 24 (Homo sapiens) (UniProt Q9Y6E0); assay: MST3 Kinase panel; conditions: Compound concentration 1.0 uM
[26] = target: MAP kinase-activated protein kinase 2 (Homo sapiens) (UniProt P49137); assay: MAPKAPK2 Kinase panel; conditions: Compound concentration 1.0 uM
[27] = target: Tyrosine-protein kinase JAK1 (Homo sapiens, UniProt P23458); assay: NanoBRET assay (JAK1, SGC Frankfurt)
[28] = target: Dual specificity mitogen-activated protein kinase kinase 3 (Homo sapiens) (UniProt P46734); assay: MEK3 Kinase panel; conditions: Compound concentration 1.0 uM
[29] = target: RAC-beta serine/threonine-protein kinase (Homo sapiens) (UniProt P31751); assay: AKT2 Kinase panel; conditions: Compound concentration 1.0 uM
[30] = target: Ribosomal protein S6 kinase alpha-3 (Homo sapiens) (UniProt P51812); assay: RSK2 Kinase panel; conditions: Compound concentration 1.0 uM
[31] = target: Serine/threonine-protein kinase SIK2 (Homo sapiens) (UniProt Q9H0K1); assay: SIK2 Kinase panel; conditions: Compound concentration 1.0 uM
[32] = target: Tyrosine-protein kinase Blk (Homo sapiens) (UniProt P51451); assay: Blk Kinase panel; conditions: Compound concentration 1.0 uM
[33] = target: Mitogen-activated protein kinase 13 (Homo sapiens) (UniProt O15264); assay: p38_delta Kinase panel; conditions: Compound concentration 1.0 uM
[34] = target: Serine/threonine-protein kinase Nek4 (Homo sapiens) (UniProt P51957); assay: NEK4 Kinase panel; conditions: Compound concentration 1.0 uM
[35] = target: Angiopoietin-1 receptor (Homo sapiens) (UniProt Q02763); assay: Tie2 Kinase panel; conditions: Compound concentration 1.0 uM
[36] = target: Serine/threonine-protein kinase PAK 4 (Homo sapiens) (UniProt O96013); assay: PAK4 Kinase panel; conditions: Compound concentration 1.0 uM
[37] = target: Alpha-2A adrenergic receptor (Homo sapiens) (UniProt P08913); conditions: Compound concentration 10.0 uM
[38] = target: Epithelial discoidin domain-containing receptor 1 (Homo sapiens) (UniProt Q08345); assay: DDR1 Kinase panel; conditions: Compound concentration 1.0 uM
[39] = target: Calcium/calmodulin-dependent protein kinase type II subunit alpha (Homo sapiens) (UniProt Q9UQM7); assay: CamKII_alpha Kinase panel; conditions: Compound concentration 1.0 uM
[40] = target: Tyrosine-protein kinase ZAP-70 (Homo sapiens) (UniProt P43403); assay: ZAP-70 Kinase panel; conditions: Compound concentration 1.0 uM
[41] = target: Cytoplasmic tyrosine-protein kinase BMX (Homo sapiens) (UniProt P51813); assay: Bmx Kinase panel; conditions: Compound concentration 1.0 uM
[42] = target: Bone morphogenetic protein receptor type-1A (Homo sapiens) (UniProt P36894); assay: BMPR1A Kinase panel; conditions: Compound concentration 1.0 uM
[43] = target: 5-hydroxytryptamine receptor 3A (Homo sapiens) (UniProt P46098); conditions: Compound concentration 10.0 uM
[44] = target: MAP kinase-activated protein kinase 5 (Homo sapiens) (UniProt Q8IW41); assay: PRAK Kinase panel; conditions: Compound concentration 1.0 uM

SMILES: CC(C)(O)[C@H](F)CN1Cc2cc(NC(=O)c3cnn4cccnc34)c(N3CCOCC3)cc2C1=O
- inhibition [1]: 5.5%
- inhibition [2]: -9.03%
- inhibition [3]: 6%
- inhibition [4]: 33%
- inhibition [5]: -2%
- inhibition [6]: 6.5%
- inhibition [7]: -5.5%
- inhibition [8]: 13.3%
- inhibition [9]: 3.5%
- inhibition (Homo sapiens): 5%
- inhibition [10]: 18.5%
- inhibition [11]: 9%
- inhibition [12]: 15%
- inhibition [13]: 17%
- inhibition [14]: 0.5%
- inhibition [15]: 7.5%
- inhibition [16]: 33.2%
- inhibition [17]: -2%
- inhibition [18]: 2%
- inhibition [19]: 14%
- inhibition [20]: -1%
- EC50 [21]: 3 nM (active)
- IC50 [21]: 3.3 nM (active)
- inhibition [22]: 11.5%
- inhibition [23]: 5%
- inhibition [24]: 5.5%
- inhibition [25]: 5.5%
- inhibition [26]: 9.5%
- EC50 [27]: > 50000 nM (not active)
- inhibition [28]: 12%
- inhibition [29]: 7.5%
- inhibition [30]: 15%
- inhibition [31]: 12%
- inhibition [32]: 37.5%
- inhibition [33]: 5.5%
- inhibition [34]: 10%
- inhibition [35]: 6.5%
- inhibition [36]: 5%
- inhibition [37]: 9.09%
- inhibition [38]: -2%
- inhibition [39]: 2.5%
- inhibition [40]: -6.5%
- inhibition [41]: 33.3%
- inhibition [42]: 7%
- inhibition [43]: -0.18%
- inhibition [44]: -3.5%
